ChEMBL document CHEMBL1127824, “6,6-Disubstituted Hex-5-enoic acid derivatives as combined thromboxane A2 receptor antagonists and synthetase inhibitors” (J Med Chem, 1994)
pEC50, pIC50: −log10 of the molar value. Several values for one entry are separate records, joined by “and”; a condition that tells them apart may be missing. Equal entries are not always repeated.

How the values were obtained:
Homo sapiens = organism: Homo sapiens; assay: tissue or blood; assay type: functional, organism-based; conditions: Plasma
Description: Inhibition of collagen-induced platelet aggregation in human platelet-rich plasma.

Thromboxane A2 receptor = target: T1, Thromboxane A2 receptor (Homo sapiens, UniProt P21731)
T1 sequence (P21731 whole entry): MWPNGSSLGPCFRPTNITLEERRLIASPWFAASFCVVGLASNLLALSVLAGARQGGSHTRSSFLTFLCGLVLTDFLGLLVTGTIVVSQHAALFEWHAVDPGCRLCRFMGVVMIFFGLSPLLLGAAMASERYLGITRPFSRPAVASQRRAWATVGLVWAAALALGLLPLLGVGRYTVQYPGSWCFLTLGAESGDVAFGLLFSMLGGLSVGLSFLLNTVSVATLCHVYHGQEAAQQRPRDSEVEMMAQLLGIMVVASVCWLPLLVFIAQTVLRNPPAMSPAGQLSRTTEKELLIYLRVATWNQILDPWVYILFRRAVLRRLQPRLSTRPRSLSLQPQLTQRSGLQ

Thromboxane-A synthase = target: T2, Thromboxane-A synthase (Homo sapiens, UniProt P24557)
T2 sequence (P24557 whole entry): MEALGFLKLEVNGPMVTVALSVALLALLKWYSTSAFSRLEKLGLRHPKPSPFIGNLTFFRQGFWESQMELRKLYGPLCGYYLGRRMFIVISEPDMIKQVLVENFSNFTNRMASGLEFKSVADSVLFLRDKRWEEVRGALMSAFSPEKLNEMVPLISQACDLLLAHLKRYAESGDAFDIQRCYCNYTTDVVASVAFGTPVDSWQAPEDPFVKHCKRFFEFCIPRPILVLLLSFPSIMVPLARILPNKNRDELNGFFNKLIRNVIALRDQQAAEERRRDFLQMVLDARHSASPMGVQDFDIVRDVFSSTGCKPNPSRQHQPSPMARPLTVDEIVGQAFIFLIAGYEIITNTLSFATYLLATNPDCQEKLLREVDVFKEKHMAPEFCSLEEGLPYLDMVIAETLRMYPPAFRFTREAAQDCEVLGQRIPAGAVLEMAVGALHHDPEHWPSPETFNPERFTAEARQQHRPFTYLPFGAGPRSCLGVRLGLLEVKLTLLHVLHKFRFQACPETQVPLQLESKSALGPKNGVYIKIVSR
Description: Inhibition test of thromboxane A2 synthetase in human gel-filtered platelets.

Work on `NC(=O)CCC/C=C(\c1ccc(CCNS(=O)(=O)c2ccc(Cl)cc2)cc1)c1cccnc1` yielded a pEC50 (Homo sapiens) of 4.55, a pIC50 (Thromboxane A2 receptor) of 7.03 and a pIC50 (Thromboxane-A synthase) of 7.41.
Compound `O=C(O)CCCCCC(c1ccc(CCNS(=O)(=O)c2ccc(Cl)cc2)cc1)c1cccnc1` (stereo not drawn) has a pEC50 (Homo sapiens) of 5.92, a pIC50 (Thromboxane A2 receptor) of 6.68 and a pIC50 (Thromboxane-A synthase) of 7.51.
`CCN(CCc1ccc(/C(=C\CCCC(=O)O)c2cccnc2)cc1)S(=O)(=O)c1ccc(Cl)cc1` showed a pEC50 (Homo sapiens) of 4.89, a pIC50 (Thromboxane A2 receptor) of 7.48 and a pIC50 (Thromboxane-A synthase) of 8.40.
`O=C(O)CCC/C=C(\c1ccc(CCN(CC(=O)O)S(=O)(=O)c2ccc(Cl)cc2)cc1)c1cccnc1` showed a pEC50 (Homo sapiens) of 4.36, a pIC50 (Thromboxane A2 receptor) of 7.21 and a pIC50 (Thromboxane-A synthase) of 6.51.
`O=C(O)CCC/C=C(\c1ccc(CCNC(=O)c2ccc(Cl)cc2)cc1)c1cccnc1` gave a pEC50 (Homo sapiens) of 4.26, a pIC50 (Thromboxane A2 receptor) of 6.68 and a pIC50 (Thromboxane-A synthase) of 7.37.
Work on `O=C(O)CCC/C=C(\c1ccc(CCNS(=O)(=O)c2ccc(F)cc2)cc1)c1cccnc1` yielded a pEC50 (Homo sapiens) of 5.51, a pIC50 (Thromboxane A2 receptor) of 7.18 and a pIC50 (Thromboxane-A synthase) of 8.40.
`O=C(O)C/C=C(\c1ccc(CCNS(=O)(=O)c2ccc(Cl)cc2)cc1)c1cccnc1` showed a pEC50 (Homo sapiens) of 4.43, a pIC50 (Thromboxane A2 receptor) of 7.92 and a pIC50 (Thromboxane-A synthase) of 6.00.
With `O=C(O)CCC/C=C(\c1ccc(NS(=O)(=O)c2ccc(Cl)cc2)cc1)c1cccnc1` the pEC50 (Homo sapiens) was under 4.00, the pIC50 (Thromboxane A2 receptor) was 6.57 and the pIC50 (Thromboxane-A synthase) was 8.30.
Compound `O=C(O)CCC/C=C(\c1ccc(CCN(CCN2CCOCC2)S(=O)(=O)c2ccc(Cl)cc2)cc1)c1cccnc1` has a pEC50 (Homo sapiens) of 4.68, a pIC50 (Thromboxane A2 receptor) of 7.24 and a pIC50 (Thromboxane-A synthase) of 8.40.
For `O=C(O)CCC/C=C(\c1ccc(CCNS(=O)(=O)c2ccccc2)cc1)c1cccnc1`, the pEC50 (Homo sapiens) was 5.47, the pIC50 (Thromboxane A2 receptor) was 7.09 and the pIC50 (Thromboxane-A synthase) was 8.30.
Work on `COC(=O)CCC/C=C(\c1ccc(CCNS(=O)(=O)c2ccc(Cl)cc2)cc1)c1cccnc1` yielded a pEC50 (Homo sapiens) of 4.96, a pIC50 (Thromboxane A2 receptor) of 7.44 and a pIC50 (Thromboxane-A synthase) of 7.48.
`CN(CCc1ccc(/C(=C\CCCC(=O)O)c2cccnc2)cc1)S(=O)(=O)c1ccc(Cl)cc1` showed a pEC50 (Homo sapiens) of 4.62, a pIC50 (Thromboxane A2 receptor) of 7.60 and a pIC50 (Thromboxane-A synthase) of 7.82.
In the case of `CCCCS(=O)(=O)NCCc1ccc(/C(=C\CCCC(=O)O)c2cccnc2)cc1`, the pEC50 (Homo sapiens) was 5.47, the pIC50 (Thromboxane A2 receptor) was 5.96 and the pIC50 (Thromboxane-A synthase) was 8.30.
Work on `O=C(O)CCC/C=C(\c1ccc(CCNS(=O)(=O)c2ccc(Cl)cc2)cc1)c1ccc[n+]([O-])c1` yielded a pEC50 (Homo sapiens) of under 4.00, a pIC50 (Thromboxane A2 receptor) of 5.96 and a pIC50 (Thromboxane-A synthase) of 4.35.
Compound `NC(=O)CN(CCc1ccc(/C(=C\CCCC(=O)O)c2cccnc2)cc1)S(=O)(=O)c1ccc(Cl)cc1` has a pEC50 (Homo sapiens) of 5.04, a pIC50 (Thromboxane A2 receptor) of 7.31 and a pIC50 (Thromboxane-A synthase) of 8.30.
`O=C(O)CCC/C=C(\c1ccc(CCN(Cc2ccc(C(=O)O)cc2)S(=O)(=O)c2ccc(Cl)cc2)cc1)c1cccnc1` showed a pEC50 (Homo sapiens) of under 4.00, a pIC50 (Thromboxane A2 receptor) of 7.55 and a pIC50 (Thromboxane-A synthase) of 7.34.
For `O=C(O)CCC/C=C(/c1cccnc1)c1cccc(NS(=O)(=O)c2ccc(Cl)cc2)c1`, the pEC50 (Homo sapiens) was 4.40, the pIC50 (Thromboxane A2 receptor) was 7.22 and the pIC50 (Thromboxane-A synthase) was 8.15.
In the case of `O=C(O)CCC(CCCCNS(=O)(=O)c1ccc(Cl)cc1)CCCc1cccnc1` (stereo not drawn), the pEC50 (Homo sapiens) was 5.24, the pIC50 (Thromboxane A2 receptor) was 8.22 and the pIC50 (Thromboxane-A synthase) was 8.22 and 8.40.
Compound `O=C(O)c1cccc(/C=C(\c2ccc(CCNS(=O)(=O)c3ccc(Cl)cc3)cc2)c2cccnc2)c1` has a pEC50 (Homo sapiens) of 4.52, a pIC50 (Thromboxane A2 receptor) of 7.00 and a pIC50 (Thromboxane-A synthase) of 8.40.
Work on `Cc1cc(C)c(S(=O)(=O)NCCc2ccc(/C(=C\CCCC(=O)O)c3cccnc3)cc2)c(C)c1` yielded a pEC50 (Homo sapiens) of 4.52, a pIC50 (Thromboxane A2 receptor) of 7.38 and a pIC50 (Thromboxane-A synthase) of 7.72.
Compound `Cc1ccc(S(=O)(=O)NCCc2ccc(/C(=C\CCCC(=O)O)c3cccnc3)cc2)cc1` has a pEC50 (Homo sapiens) of 6.15, a pIC50 (Thromboxane A2 receptor) of 7.48 and a pIC50 (Thromboxane-A synthase) of 8.30.
For `O=C(O)CCO/N=C(\c1ccc(CCNS(=O)(=O)c2ccc(Cl)cc2)cc1)c1cccnc1`, the pEC50 (Homo sapiens) was 5.37, the pIC50 (Thromboxane A2 receptor) was 7.59 and the pIC50 (Thromboxane-A synthase) was 7.22.
`O=C(O)CCC/C=C(\c1ccc(CCNS(=O)(=O)c2ccc(C(F)(F)F)cc2)cc1)c1cccnc1` gave a pEC50 (Homo sapiens) of 5.55, a pIC50 (Thromboxane A2 receptor) of 7.55 and a pIC50 (Thromboxane-A synthase) of 8.22.
In the case of `O=C(O)CCC/C=C(\c1ccc(CCN(CCC(=O)O)S(=O)(=O)c2ccc(Cl)cc2)cc1)c1cccnc1`, the pEC50 (Homo sapiens) was under 4.00, the pIC50 (Thromboxane A2 receptor) was 6.92 and the pIC50 (Thromboxane-A synthase) was 7.00.
Work on `O=C(O)CCC/C=C(/c1cccnc1)c1ccc2c(c1)CCC(NS(=O)(=O)c1ccc(Cl)cc1)C2` (stereo not drawn) yielded a pEC50 (Homo sapiens) of 5.30, a pIC50 (Thromboxane A2 receptor) of 7.89 and a pIC50 (Thromboxane-A synthase) of 8.10.
For `O=C(O)CCC/C=C(/c1cccnc1)c1cccc(CCNS(=O)(=O)c2ccc(Cl)cc2)c1`, the pEC50 (Homo sapiens) was 5.77, the pIC50 (Thromboxane A2 receptor) was 7.92 and the pIC50 (Thromboxane-A synthase) was 8.40.
